Measured values from US20170266266A1, “Functions of 55 Newfound Proteins and Their Medicinal Application in the Treatment and Prevention of Disease” (priority 2012, published 2017).
Like-named read-outs stand apart in the source and are kept apart here.

How the values were obtained:
[1] = system: fatty streak lesions in rabbits on high fat diet; assay type: in vivo, rabbit; details: for TC/HDL-C: Atorvastatin group
Experimental: The rabbits were fasted for 12 hrs before the beginning of the experiments. Blood parameters were then tested as the normal level of plasma indicators. A total of 52 rabbits were purchased at different time, four of them were used as normal control and fed with normal diet the whole time during the experiments. […] Plasma concentrations of total cholesterol (TC), […] (TG), low density lipoprotein-cholesterol (LDL-C), very low density lipoprotein-cholesterol (VLDL-C), high density lipoprotein-cholesterol (HDL-C) were quantified by enzymatic assays. TC/HDL-C or ([…] ratios were then determined. Animals were sacrificed under deep anesthesia with sodium pentobarbital 25 mg/kg IV. The entire aorta from the aortic valve to the iliac bifurcation was removed from each rabbit and opened longitudinally. […] Atheromatous lesions were measured without staining Atheromatous lesions were manually traced in the photographs, and the percent area of the atheromatous lesions was calculated. Sample of aorta from animals were homogenated. And the content of lipid was determined.

[2] = system: atherosclerosis in ApoE knock out mouse on high fat diet
From the text: 10 ApoE ko mice were fed with regular chow diet and used as negative control group. 50 ApoE ko mice were fed with high fat diet (35% kcal fat, 1% cholesterol) for 8 weeks, and then the plasma samples were collected for lipid profile measurement before the treatment. 50 ApoE ko mice were assigned into 5 groups based on the fasting overnight plasma TC and HDL level.
5.2. Study Timeline: • 23 Dec. 2011: 60 ApoE mice arrived at chempartner and were housed in the animal facility in the building #3 for the acclimation. • 6 Jan. 2012: Measured the body weight for each mouse. 50 mice were fed with high fat diet and 10 mice were fed with normal chow diet. • 2 Mar. 2012: All mice were fasted over night and plasma samples (about 300 ul whole blood) were collected for lipid profile measurement before treatment with RAAS antibody. • 19 Mar. 2012 to 6 Apr. […] 2012: All mice were fasted over night and plasma sample for each mouse (about 300 ul whole blood) was collected for lipid profile measurement after 16 weeks treatment. Blood glucose was also measured for each mouse. • 9 Jul. 2012: The study was terminated after 16 weeks treatment. Measure BW, sacrificed each mouse, dissected the aorta, heart, liver and kidney and fixed them in 4% PFA.
Antibody products were administrated by intraperitoneal injection every two days (Monday, Wednesday, and Friday). and the positive compound was administered by p.o every day.
The body weight was weighed weekly during the period of treatment. The fasting overnight blood glucose was measured at the end of study by Roche glucometer.
About 300 ul of blood sample was collected from the orbital vein for each mouse and centrifuged at 7000 rpm for 5 min at 4E and the plasma lipid profile was measured by Roche Modular automatic biochemistry analyzer in DaAn Medical Laboratory
After RAAS antibody products treatment for 16 weeks, all mice were sacrificed. Measured body weight and collected blood sample for each mouse. Weighed liver weight and saved a tiny piece of liver into 4% paraformaldehyde (PFA) fixation solution for further analysis. At same time, take the photos with heart, lung, aortas and two kidneys.
5.8. Oil Red Staining Procedure: • 1. Sacrificed the mice and dissected the heart, aorta, and arteries under dissecting microscope. • 2. Briefly wash with PBS and fixed in 4% paraformaldehyde (PFA) overnight at 4[…]. • 3. Rinse with 60% isopropanol • 4. Stain with freshly prepared Oil Red O working solution 10 min. • 1). Oil red O stock stain: 0.5% powder in isopropanol • 2). Working solution: dilute with distilled water (3:2) and filter with membrane (0.22 um) • 5. Rinse with 60% isopropanol 10 second. • 6. Dispel the adherent bit fat outside of the aorta under the dissecting microscope. • 7. Cut the vascular wall gently and keep the integrated arteries using the micro scissors. • 8. Unfold the vascular inner wall with the cover slides and fix it by water sealing tablet.
Scanning the glasses slides with the Aperio ScanScope system and analyze with the image proplus software to measure the area of atherosclerotic plaque lesion. The results were expressed as the percentage of the total aortic surface area covered by lesions. The operation procedure of software was briefly described as follow: Converted the sys version photos into JPG version, then calibrated it and subsequently selected the red regions and then calculate the total area automatically by image proplus software.
The results were expressed as the Mean±SEM and statistically evaluated by student's t-test.

[3] = system: 3T3-L1 adipocytes; experiment: Glucose uptake assay; assay type: cell-based
Experimental: Study Protocol • 1. 3T3-L1 fibroblasts were cultured in DMEM containing 25 mM glucose and 10% bovine calf serum at 37 °C with 5% CO2. • 2. 3T3-L1 fibroblasts were differentiated into adipocytes 2 days post confluent with the same DMEM medium containing 1 ug/ml insulin (Sigma-Aldrich), 1 uM dexamethasone (Sigma-Aldrich), and 0.5 mM isobutyl-1-methylxanthine (Sigma-Aldrich). • 3. Media were replaced with DMEM containing 10% FBS and 1 ug/ml insulin and culture 2 days. • 4. Seed 1×10^5 3T3-L1 adipocytes to 96 wells cell culture plate (DMEM, 10% FBS, 1% PS, 1 ug/ml insulin) • 5. Before experiments, adipocytes were incubated in serum free medium for starvation overnight. • 6. Dilute each sample 100 folds (2 ul primal solution to 198 ul buffer) in corresponding buffer. Add 2 ul of sample primal solution, 100 folds diluted solution and buffer to 198 ul KRPH buffer. • 7. 3T3-L1 adipocytes were washed with KRPH buffer (5 mM Na2HPO4, 20 mM HEPES, pH 7.4, 1 mM MgSO4.1 mM CaCl2, 136 mM NaCl, […], and 1% BSA) three times, Add 90 ul/well KRPH containing human insulin and samples to assay plate, incubate for 30 min at 37[…] and 5% CO2. • 8. Add 10 ul KRPH containing 0.25 uCi 1-[3H]-2-deoxyglucose/well and 50 umol/l 2-deoxyglucose and Incubate 10 min in 95% air/5% CO2 at 37[…] • 9. The transport was stopped by rinsing the cells with cold PBS containing 10 mM glucose for three times. • 10. The adipocytes were lysed in 50 ul 10% KOH for 5 min • 11. Then the aliquots were subjected to scintillation counting using TriCap.

[4] = system: atherosclerosis in New Zealand white rabbit on high fat diet; details: rabbit, in vivo
Experimental: New Zealand rabbits were adopted in this animal study and divided into 5 groups. They were high dose, medium dose and low dose of treatment, positive and vehicle control. The treatment groups were given APOAI via auricular vein once a week. […] Positive controls were given Liptor daily by p.o. with a dose of 0.45 mg/kg body weight. […] The study duration was 19 weeks. At the end of study, all animals were sacrificed. […] Lipid content was examined in liver and aorta. And liver index was also determined.
The body weight was between 1.8-2.0 kg. The animals were quarantined for 5-10 days with normal diet before study.
Animals were randomly divided into 5 groups including vehicle control, high dose, medium dose, low dose and positive control group. Ten to 14 rabbits were in one group. Each rabbit was fed with 30 gram of high fat diet followed by 120 gram of normal diet with free access to water.
The frequency of dosing was once a week. Dose was 80, 40, 20 mg/kg body weight respectively. Drug was given by intravenous injection via auricular vein with the volume of 5 mL.
5.1 body weight: body weight of each rabbit was determined once a week.
Resulted blood samples were kept still for 2 hours and then spin with 4,000 rpm for 10 min.
Abdomen cavity was opened. Whole blood was taken from heart. Heart was harvested along with 7 cm of aorta.
The aorta was dissected for 0.5 cm from aortic arch, split longitudinally and then kept in cryo-preservation tube for later lipid analysis. One piece of this sample was fixed in formalin for further pathological analysis.
The weight of liver was determined immediately. Two pieces of specimen were cut from hepatic lobe.
Resulted blood samples were kept still for 2 hours.
The aorta was dissected and opened for 7.5 cm from aortic arch longitudinally. Pictures were taken and atherosclerosis changing was analyzed.

[5] = system: Influenza A/Weiss/43 H1N1 in MDCK cells; experiment: microbe, parasite or virus in culture; assay type: cell-based
[6] = system: Influenza H1N1 A/WSN/33; assay type: in vivo, BALB/c mice
[7] = H1N1 + Oseltamivir, dose printed 0.2/0.4 ml/mouse

For `CC(C)c1c(C(=O)Nc2ccccc2)c(-c2ccccc2)c(-c2ccc(F)cc2)n1CC[C@@H](O)C[C@@H](O)CC(=O)O` [Atorvastatin, reference compound], the “lipid con. at dissected aorta” value ([1]; Atorvastatin group (n = 4), triglyceride content) was 0.0274 ± 0.006 µmol/mg, the TC/HDL-C ([1]; Wk 0 (start of high fat diet)) was 1.844 and the TC/HDL-C ([1]; Wk 10 (before Atorvastatin administration)) was 4.511. For the same compound, the TC/HDL-C ([1]; Wk 18 (end of Atorvastatin administration)) was 6.811, the liver weight ([2]; 40 mg/kg, 16 weeks treatment) was “significantly reduced” and the TC net change ([2]; 16 week treatment) was “not reduce the TC net change”. For the same compound, the “net change of LDL” value ([2]; 16 week treatment) was “no significant difference in net change of LDL”, the “plaque area and percentage of plaque area in total inner vascular area” value ([2]; 16 weeks) was “mild trend to decrease percentage of plaque area” and the “plaque lesion area of aorta” value ([2]; 16 weeks treatment, atorvastatin 40 mg/kg) was “did not affect the plaque lesion area of aorta”.
insulin showed an EC50 ([3]; dose response AFOD 1 / AFOD RAAS 109, run N1) of 7.08 nM, an EC50 ([3]; dose response AFOD 1 / AFOD RAAS 109, run N2) of 8.64 nM and an EC50 ([3]; dose response AFOD RAAS 107 / AFOD KH, run N1) of 3.09 nM. The EC50 ([3]; dose response AFOD RAAS 107 / AFOD KH, run N2) was 10.2 nM and the EC50 ([3]; dose response AFOD RAAS 107 / AFOD KH, run N3) was 4.17 nM.
In the case of `CC(C)c1c(C(=O)Nc2ccccc2)c(-c2ccccc2)c(-c2ccc(F)cc2)n1CC[C@@H](O)C[C@@H](O)CC(=O)O` [Liptor, reference compound], the “calcification, pathological examination” value [4] is reported as “one animal with calcification”.
In the case of `CCOC(=O)C1=C[C@@H](OC(CC)CC)[C@H](NC(C)=O)[C@@H](N)C1` [Osletamivir, Oseltamivir], the EC50 ([5]; A/Weiss/43 H1N1, MDCK cells, read-out: EC50) is reported as 890 nM, the EC50 ([5]; Influenza A/Weiss/43 H1N1 in MDCK cells, MTT after 72 hours, positive control, read-out: anti H1N1 EC50s) is reported as 890 nM and the “mice survived to the end of experiment” value ([6]; 1 mg/kg orally twice daily for 8 days) is reported as 4 out of 5. The “Mean day to death ± S.D.” value [6, 7] was greater than 14 ± 0.0 days, the Survivor/total [6, 7] was 4/4 and the body weight drop ([6]; mouse, in vivo) was less than 15%.
